Measurements published in PubChem BioAssay (NCI).
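Growth conditions: 96-well plates. Treatment: test compound, 48 hours, 5 concentrations. Analysis: linear interpolation between bracketing concentrations; unreached endpoints set to highest concentration. At the GI50, growth is halved. TGI denotes the concentration required for complete inhibition of growth.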

Assays:
Assay in all cases: NCI anticancer screen, dose series, 48 h
[1] = system: T-47D breast
[2] = system: OVCAR-4 ovarian
[3] = system: NCI-H226 lung
[4] = system: SW-620 colon
[5] = system: SR leukemia
[6] = system: PC-3 prostate
[7] = system: HS 578T breast
[8] = system: SN12C renal
[9] = system: MDA-N
[10] = system: SNB-78 CNS
[11] = system: DMS 114 small cell lung

Row | SMILES | GI50 [1] | TGI [1] | GI50 [2] | TGI [2] | GI50 [3] | TGI [3] | GI50 [4] | TGI [4] | GI50 [5] | TGI [5] | GI50 [6] | TGI [6] | GI50 [7] | TGI [7] | GI50 [8] | TGI [8] | TGI [9] | TGI [10] | TGI [11]
1 | Cc1ccc(Oc2nc3ccccc3cc2-c2nnc(Cn3c(COc4ccccc4)nc4ccccc43)o2)cc1 | 2.61 µM | 14.6 µM | 2.36 µM | 10.2 µM | 5.99 µM | 31.4 µM | 1.08 µM | 4.79 µM | 0.734 µM | 8.53 µM | 2.71 µM | 15.4 µM | 4.39 µM | 33.8 µM | 2.76 µM | 11.9 µM |  |  | 
2 | COc1cc2c(cc1OC)-c1c(c3ccc([N+](=O)[O-])cc3c(=O)n1CCCN)C2=O | 0.271 µM | 8.47 µM | 1.07 µM | 2.72 µM | 3.61 µM | 12.1 µM | 0.491 µM | 5.92 µM | 0.0386 µM | 0.346 µM | 6.1 µM | 12.3 µM | 9.12 µM | 20.2 µM | 0.695 µM | 6.82 µM |  |  | 
3 | CCN1CCC(CC(=O)Nc2n[nH]c3nc(-c4cccs4)c(Br)cc23)CC1 | 12.4 µM | > 25 µM | 11.5 µM | > 25 µM | 12.1 µM | > 25 µM | 11.4 µM | > 25 µM | 11.2 µM | > 25 µM | 10.4 µM | > 25 µM | 12.3 µM | > 25 µM | 9.51 µM | > 25 µM |  |  | 
4 | CN1CCC(n2[nH]c(-c3ccccc3)c(Cc3ccccc3)c2=O)CC1 |  | > 100 µM |  | > 100 µM |  | > 100 µM |  | > 100 µM |  | > 100 µM |  | > 100 µM |  | > 100 µM |  | > 100 µM | > 100 µM |  | 
5 | c1cncc(CNc2ncn[nH]2)c1 |  | > 100 µM |  | > 100 µM |  | > 100 µM |  | > 100 µM |  | > 100 µM |  | > 100 µM |  | > 100 µM |  | > 100 µM | > 100 µM |  | 
6 | CN(C)S(=O)(=O)c1ccc(Nc2ccc(O)c3c2C(=O)c2c([N+](=O)[O-])ccc(O)c2C3=O)cc1 |  | > 100 µM |  | > 100 µM |  |  |  | > 100 µM |  | > 100 µM |  | > 100 µM |  | > 100 µM |  | > 100 µM | > 100 µM |  | 
7 | Clc1cc(Cl)cc(Nc2nc3ccccc3nc2-c2cccs2)c1 |  |  |  |  |  | > 100 µM |  | > 100 µM |  | > 100 µM |  |  |  |  |  | > 100 µM |  | > 100 µM | 
8 | CCOC(=O)/C(=C\c1ccc(F)cc1)C(C)=O |  | 63.9 µM |  | > 100 µM |  | 75.2 µM |  | > 100 µM |  | 64 µM |  | 38.2 µM |  | > 100 µM |  | > 100 µM | > 100 µM |  | 
9 | O=[N+]([O-])c1cccc(-c2cc(-c3cc(Br)ccc3O)[nH]n2)c1 | 2.64 µM | 8.84 µM | 3.45 µM | 17.3 µM | 3.66 µM | 27.2 µM | 2.81 µM | 12.3 µM | 1.66 µM | 4.8 µM | 3.48 µM | 7.7 µM | 2.15 µM | 9.29 µM | 3.19 µM | 12.4 µM |  |  | 
10 | Cc1ccc(F)cc1NC(=O)c1cc(Cl)ccc1Nc1ccccc1 | > 100 µM | > 100 µM | 15.9 µM | > 100 µM | > 100 µM | > 100 µM | > 100 µM | > 100 µM | > 100 µM | > 100 µM | > 100 µM | > 100 µM | 36.1 µM | > 100 µM | > 100 µM | > 100 µM |  |  | 
11 | COc1ccc(/C=C\c2cc(OC)c(OC)c(OC)c2)cc1OCC(=O)Nc1nc2ccc(OC(F)(F)F)cc2s1 | 3.95 µM | > 100 µM | 5.34 µM | > 100 µM | 4.3 µM | 62.2 µM | 5.65 µM | > 100 µM | 3.55 µM | > 100 µM | 5.12 µM | > 100 µM | 4.33 µM | > 100 µM | 6.42 µM | > 100 µM |  |  | 
12 | CO/N=C(/COc1c(-c2ccccc2)oc2ccccc2c1=O)c1ccc(F)cc1 | > 100 µM | > 100 µM | 25.9 µM | 71.4 µM | > 100 µM | > 100 µM | > 100 µM | > 100 µM | 22 µM | > 100 µM | 31.5 µM | > 100 µM | 30.2 µM | > 100 µM | 35.1 µM | > 100 µM |  |  | 
13 | COc1cc(/C=C2\C(=O)Nc3ccccc32)cc(OC)c1OC | > 100 µM | > 100 µM | 22.1 µM | > 100 µM | 26.1 µM | > 100 µM | 19.9 µM | > 100 µM | 3.83 µM | > 100 µM | 18.8 µM | > 100 µM | 28.7 µM | > 100 µM | 20.7 µM | > 100 µM |  |  | 
14 | COc1ccccc1NC(=O)C1=C(C)NC(C)=C(C(=O)Nc2ccccc2OC)C1c1cccc2c1OCO2 |  |  |  | > 100 µM |  | > 100 µM |  | > 100 µM |  | > 100 µM |  |  |  |  |  | > 100 µM |  |  | > 100 µM
15 | CNCCOC(=O)/C=C1/CCC2C(C(O)CC3C(C)(C(=O)OC)CCCC23C)C1C (configuration not stated) | 0.0294 µM | 0.0762 µM | 0.0183 µM | 0.034 µM | 0.0191 µM | 0.0408 µM | 0.018 µM | 0.0394 µM | 0.0198 µM | 0.0553 µM | 0.0214 µM | 0.202 µM | < 0.01 µM | 0.298 µM | < 0.01 µM | 0.112 µM |  |  | 
16 | NC(=O)c1c2c(cc3c(=O)c4ccccc4[nH]c13)CCCC2 |  |  |  | > 100 µM |  | > 100 µM |  | > 100 µM |  | > 100 µM |  |  |  |  |  | > 100 µM |  |  | > 100 µM
17 | COc1ccc(-n2c(C)nc3c(c(C)nn3-c3ccccc3)c2=O)cc1 | 0.0403 µM | 72.5 µM | 1.11 µM | > 100 µM | 0.207 µM | > 100 µM | 0.0415 µM | > 100 µM | 0.0391 µM | > 58.7 µM | 0.0603 µM | > 100 µM | 0.0528 µM | > 100 µM | 0.442 µM | > 100 µM |  |  | 
